36 compounds from ChEMBL document CHEMBL5143547, “Antimycobacterial and anti-inflammatory activities of thiourea derivatives focusing on treatment approaches for severe pulmonary tuberculosis” (Bioorg Med Chem, 2022) can be followed below.

Molecules are shown by their SMILES. Some results are limits rather than exact numbers.

For data set [1], the system named is Mycobacterium tuberculosis. As to the kind of experiment: Antitubercular activity against Mycobacterium tuberculosis H37Rv assessed as reduction in microbial growth after 5 days by MTT assay. It counts as functional. Particulars: 120 h, time 5 day.
Data set [2] is described as follows: Cytotoxicity against LPS-stimulated mouse RAW264.7 cells after 24 hrs by MTT assay. It counts as toxicity, cell-based. As to conditions: LPS-stimulated RAW264.7 cells. In general terms: Tetrazolium assays rely on reduction of a dye to a coloured formazan, in cell work by metabolically active cells.
Data set [3] in a line: Selectivity index, ratio of CC50 for cytotoxicity against LPS-stimulated mouse RAW264.7 cells to MIC50 for antitubercular activity against Mycobacterium tuberculosis H37Rv. It is filed as toxicity, cell-based. As to conditions: LPS-stimulated RAW264.7 cells, read-out: Selectivity Index.
Data set [4] relates to RAW264.7. As to the kind of experiment: Inhibition of NO production in mouse RAW264.7 cells incubated for 24 hrs by Griess reagent based analysis. It is filed as functional, cell-based. Particulars: RAW264.7, 24 h. (Griess reagent forms a coloured azo dye with nitrite.)

`CCCCNC(=S)NCc1ccccc1`: the MIC50 (in general, the lowest concentration that inhibits either 50% of growth or 50% of the strains tested, depending on the study) in data set [1] was 160 µM. The CC50 (commonly the concentration at which the toxic effect on the cells reaches its halfway point) at 24 h in data set [2] came to 177 µM. In data set [3], the selectivity ratio was found to be 1.1. Besides, the IC50 – broadly, the midpoint of a concentration-inhibition curve – in data set [4] is 143 µM.

Turning to `CCN(CC)C(S)=NCCc1ccccc1`, in data set [1], the MIC50 worked out at 17.6 µM. Besides, it took 87.3 µM to reach half-maximal cytotoxicity in data set [2] (CC50 at 24 h). Moreover, the selectivity ratio in data set [3] amounted to 4.9. This compound registered an IC50 in data set [4] not below 200 µM.

Consider `O=C(C1CCCO1)N1CCN(C(=S)Nc2ccccc2)CC1` (stereo unspecified), for which the MIC50 in data set [1] amounted to 23.3 µM. The same compound came in with a CC50 at 24 h in data set [2] not below 200 µM. In addition, the selectivity ratio in data set [3] was more than 8.6. This compound also registered an IC50 in data set [4] of 187 µM.

As to `S=C(NCc1ccccc1)N(c1ccccc1)c1ccccc1`, the MIC50 in data set [1] was not below 200 µM. In data set [2], it took 67.6 µM to reach half-maximal cytotoxicity (CC50 at 24 h). The selectivity ratio in data set [3] was found to be 0.3. The compound also registered an IC50 in data set [4] not below 200 µM.

Take `S=C(Nc1ccccc1)N1CCN(c2ccccc2Cl)CC1`: the MIC50 in data set [1] is 37.3 µM. Half-maximal cytotoxicity in data set [2] (CC50 at 24 h) was put at 30.5 µM. In data set [3], the selectivity ratio is 0.8. This compound gave an IC50 in data set [4] not below 200 µM.

With `CCN(CC)C(=S)NCc1ccccc1`, the MIC50 in data set [1] was 40.2 µM. In addition, the CC50 at 24 h in data set [2] was not below 200 µM. The selectivity ratio in data set [3] is more than 4.9. In addition, in data set [4], the IC50 came to 15.7 µM.

In the case of `S=C(Nc1ccccc1)N1CCN(c2ncccn2)CC1`, the MIC50 in data set [1] worked out at 127 µM. In data set [2], the CC50 at 24 h is not below 200 µM. Further, the selectivity ratio in data set [3] is more than 1.6. In addition, the IC50 in data set [4] was not below 200 µM.

`S=C(NCCc1ccccc1)N1CCN(c2ncccn2)CC1`: the MIC50 in data set [1] was found to be 34.9 µM. Also, the midpoint of cytotoxicity in data set [2], the CC50 at 24 h, lay at 40.6 µM. Further, the selectivity ratio in data set [3] was 1.2. Further, the IC50 in data set [4] is not below 200 µM.

`CCCCN1CCN(C(=S)Nc2ccccc2)CC1`: the MIC50 in data set [1] was determined as 31.5 µM. Also, the CC50 at 24 h in data set [2] was not below 200 µM. In addition, the selectivity ratio in data set [3] is more than 6.4. The compound also yielded a concentration for half-maximal inhibition (IC50) in data set [4] not below 200 µM.

With `CC(C)NC(=S)NCCc1ccccc1`, the MIC50 in data set [1] worked out at 108 µM. Moreover, the CC50 at 24 h in data set [2] is not below 200 µM. The selectivity ratio in data set [3] is more than 1.9. The same compound showed an IC50 in data set [4] of 20.6 µM.

As for `OCCN(CCO)C(=S)Nc1ccccc1`, the MIC50 in data set [1] was not below 200 µM. Further, the CC50 at 24 h in data set [2] was not below 200 µM. In addition, the selectivity ratio in data set [3] is more than 1. The same compound gave an IC50 in data set [4] of 50.7 µM.

In the case of `S=C(NCc1ccccc1)Nc1ccccn1`, the MIC50 in data set [1] was determined as 17.7 µM. This compound showed a CC50 at 24 h in data set [2] not below 200 µM. Besides, in data set [3], the selectivity ratio was more than 1.1. Further, the IC50 in data set [4] is not below 200 µM.

`CN(C[C@H](O)[C@@H](O)[C@H](O)[C@H](O)CO)C(=S)NCc1ccccc1`: in data set [1], the MIC50 stood at 134 µM. Further, the CC50 at 24 h in data set [2] was 104 µM. In data set [3], the selectivity ratio is 0.8. Also, in data set [4], the IC50 was not below 200 µM.

Turning to `CC(C)NC(=S)NCc1ccccc1`, the MIC50 in data set [1] amounted to 57.8 µM. Also, the CC50 at 24 h in data set [2] is not below 200 µM. The selectivity ratio in data set [3] was more than 3.5. Also, the half-inhibitory concentration (IC50) in data set [4] was not below 200 µM.

In the case of `S=C(NCc1ccccc1)N1CCN(c2ncccn2)CC1`, the MIC50 in data set [1] turned out to be 17.8 µM. Besides, the midpoint of cytotoxicity in data set [2], the CC50 at 24 h, lay at 50.9 µM. Further, the selectivity ratio in data set [3] is 2.9. The IC50 in data set [4] was not below 200 µM.

Consider `S=C(NCCc1ccccc1)N1CCN(c2ccccn2)CC1`, for which the MIC50 in data set [1] was 12.6 µM. This compound had a CC50 at 24 h in data set [2] of 40.6 µM. Besides, the selectivity ratio in data set [3] came out at 3.2. This compound registered an IC50 in data set [4] not below 200 µM.

For the compound `COc1cc(NC(=S)N2CCN(c3ccc(O)cc3)CC2)cc(OC)c1OC`, the MIC50 in data set [1] is 80.9 µM. The same compound yielded a CC50 at 24 h in data set [2] of 17.3 µM. In data set [3], the selectivity ratio came to 0.2. The compound also displayed an IC50 in data set [4] not below 200 µM.

As for `O=C(NNC(=S)NCc1ccccc1)c1ccccc1`, the MIC50 in data set [1] is 33.7 µM. The same compound gave a CC50 at 24 h in data set [2] of 42.1 µM. Also, in data set [3], the selectivity ratio is 1.3. This compound had an IC50 in data set [4] not below 200 µM.

As for `S=C(NCCc1ccccc1)N1CCOCC1`, the MIC50 in data set [1] was not below 200 µM. For the same compound, in data set [2], the CC50 at 24 h is not below 200 µM. Further, in data set [3], the selectivity ratio is more than 1. Besides, in data set [4], the IC50 was not below 200 µM.

In the case of `CCCCN1CCN(C(=S)NCc2ccccc2)CC1`, the MIC50 in data set [1] came to 157 µM. Further, the CC50 at 24 h in data set [2] was not below 200 µM. For the same compound, the selectivity ratio in data set [3] is more than 1.3. For the same compound, in data set [4], the IC50 is not below 200 µM.

On to `S=C(Nc1ccccc1)N1CCN(Cc2ccc3c(c2)OCO3)CC1`, for which, in data set [1], the MIC50 was found to be 23.9 µM. In data set [2], this compound returned a CC50 at 24 h not below 200 µM. In addition, in data set [3], the selectivity ratio is more than 8.4. In addition, the IC50 in data set [4] amounted to 116 µM.

Turning to `Oc1ccc(N2CCN(C(=S)Nc3ccccc3)CC2)cc1`, the MIC50 in data set [1] stood at 155 µM. This compound returned a CC50 at 24 h in data set [2] of 186 µM. Besides, in data set [3], the selectivity ratio worked out at 1.2. Further, the IC50 in data set [4] was 155 µM.

For `S=C(Nc1ccccc1)N1CCN(c2ccccn2)CC1`, the MIC50 in data set [1] was determined as 9.5 µM. The CC50 at 24 h in data set [2] was not below 200 µM. In addition, in data set [3], the selectivity ratio is more than 21.1. This compound registered an IC50 in data set [4] not below 200 µM.

In the case of `S=C(NCc1ccccc1)N1CCN(Cc2ccc3c(c2)OCO3)CC1`, the MIC50 in data set [1] turned out to be 8.5 µM. In data set [2], this compound came in with a CC50 at 24 h of 136 µM. In data set [3], the selectivity ratio came to 15.9. Moreover, the IC50 in data set [4] worked out at 110 µM.

On to `Oc1cccc(NC(=S)NCc2ccccc2)c1`, for which, in data set [1], the MIC50 was 77.2 µM. In addition, in data set [2], the CC50 at 24 h is not below 200 µM. For the same compound, the selectivity ratio in data set [3] was more than 2.6. In addition, the IC50 in data set [4] is 200 µM.

Turning to `COc1ccc(NC(=S)NCc2ccccc2)cc1`, in data set [1], the MIC50 was determined as 7.9 µM. Besides, the CC50 at 24 h in data set [2] amounted to 105 µM. In data set [3], the selectivity ratio was 133. The same compound displayed an IC50 in data set [4] not below 200 µM.

Turning to `S=C(Nc1ccccc1)Nc1ccc(Br)cc1`, in data set [1], the MIC50 came to 28.9 µM. Besides, the CC50 at 24 h in data set [2] was found to be 27.1 µM. Also, the selectivity ratio in data set [3] came out at 0.9. In data set [4], this compound registered an IC50 of 1.9 µM.

Regarding `O=C(C1CCCO1)N1CCN(C(=S)NCc2ccccc2)CC1` (stereo unspecified), the MIC50 in data set [1] was determined as 24.9 µM. Also, the CC50 at 24 h in data set [2] is not below 200 µM. The selectivity ratio in data set [3] was more than 8. The same compound displayed an IC50 in data set [4] not below 200 µM.

With `COc1cc(NC(=S)Nc2ccccc2)cc(OC)c1OC`, the MIC50 in data set [1] was determined as 28.9 µM. The CC50 at 24 h in data set [2] amounted to 154 µM. Moreover, the selectivity ratio in data set [3] worked out at 5.3. The compound also displayed an IC50 in data set [4] of 15.2 µM.

With `COc1cc(NC(=S)NC#N)cc(OC)c1OC`, the MIC50 in data set [1] was 184 µM. In data set [2], this compound gave a half-maximal cytotoxic concentration (CC50) at 24 h not below 200 µM. The selectivity ratio in data set [3] was more than 1.1. In addition, in data set [4], 3.9 µM corresponded to half-maximal inhibition (IC50).

For the compound `S=C(NCCc1ccccc1)N1CCN(c2nc3ccccc3[nH]2)CC1`, the MIC50 in data set [1] is 20 µM. Also, the CC50 at 24 h in data set [2] amounted to 33.7 µM. Also, the selectivity ratio in data set [3] was 1.7. Also, in data set [4], the IC50 is not below 200 µM.

Take `COc1ccc(CN2CCN(C(=S)Nc3ccccc3)CC2)c(OC)c1OC`: in data set [1], the MIC50 worked out at 16 µM. The CC50 at 24 h in data set [2] was determined as 34.9 µM. The selectivity ratio in data set [3] came to 2.2. For the same compound, the IC50 in data set [4] is not below 200 µM.

With `COc1cc(NC(=S)Nc2cc(OC)c(OC)c(OC)c2)cc(OC)c1OC`, the MIC50 in data set [1] turned out to be 64.2 µM. The compound further returned a CC50 at 24 h in data set [2] of 60.6 µM. Besides, the selectivity ratio in data set [3] stood at 0.9. The compound further yielded an IC50 in data set [4] of 31.8 µM.

For `OCCNC(=S)Nc1ccccc1`, the MIC50 in data set [1] amounted to 53.3 µM. The compound further had a CC50 at 24 h in data set [2] of 105 µM. Also, the selectivity ratio in data set [3] is 1.9. The same compound returned an IC50 in data set [4] not below 200 µM.

For the compound `COc1ccc(NC(S)=Nc2ccccc2)cc1`, in data set [1], the MIC50 turned out to be 16.2 µM. The same compound showed a CC50 at 24 h in data set [2] of 43.3 µM. Moreover, in data set [3], the selectivity ratio was 2.7. The same compound came in with an IC50 in data set [4] not below 200 µM.

As to `CNC(=N)NCCC[C@H](N)C(=O)O` [TILARGININE ACETATE], in data set [4], the IC50 was found to be 78.3 µM.
